Measured values: paper PMC7937321 (Genes and Environment, 2021)
Read-outs that look alike come from different tables or passages of the source.

How the values were obtained:
rodent [1] = conditions: cited from earlier work; for Carcinogenicity Studies: rodent, ref [20]-[41], Table 2
rodent [2] = conditions: chromosomal Aberration test, micronucleus test, transgenic rodent gene mutation assay; ref [48], [58]–[63]; cited from earlier work
[3] = tested on: TA1538, TA100, TA98, TA97, TA1535; conditions: cited from earlier work; for Bacterial reverse mutation assay, With S9 / Bacterial reverse mutation assay, Without S9: ref [18]-[40], Table 2
[4] = tested on: human lymphoblastoid TK6 cells, thymidine kinase gene; experiment: TK gene mutation assay (TK6 assay, OECD TG490); conditions: for TK6 assay overall judgment: all treatments; for TK mutation assay, With S9 / TK mutation assay, Without S9: short-term 4 h; for TK mutation assay, With S9: with rat liver S9
[5] = tested on: human lymphoblastoid TK6 cells, thymidine kinase gene
TK6 cells [6] = conditions: human
[7] = tested on: L5178Y mouse lymphoma cells; conditions: cited from earlier work; for MLA (TK gene locus), With S9 / MLA (TK gene locus), Without S9: [46]-[53], Table 3
TK6 cells [8] = experiment: Cytotoxicity in the TK6 assay (CE, RS, RSG, RTG); conditions: for CE0 / RS0 / Adjusted CE0 / Adjusted CE0(%) / CE0 (%) / RS0 (%): Day 0
[9] = Short treatment, +S9 mix, 24.1 μg/mL
[10] = Short treatment, +S9 mix, 48.1 μg/mL
[11] = Short treatment, +S9 mix, 96 μg/mL
[12] = Short treatment, +S9 mix, 770 μg/mL
[13] = Short treatment, -S9 mix, 24.10 μg/mL
[14] = Short treatment, -S9 mix, 48.10 μg/mL
[15] = Short treatment, -S9 mix, 96.30 μg/mL
[16] = dose 6.02 μg/mL, 24h treatment, -S9 mix
[17] = dose 24.10 μg/mL, 24h treatment, -S9 mix
[18] = dose 24.1 μg/mL, short treatment, +S9 mix
[19] = dose 48.1 μg/mL, 24h treatment, -S9 mix
[20] = dose 48.1 μg/mL, short treatment, +S9 mix
[21] = dose 96 μg/mL, short treatment, +S9 mix
[22] = dose 96.3 μg/mL, 24h treatment, -S9 mix
[23] = Long-term treatment without metabolic activation
[24] = Short-term treatment with metabolic activation
[25] = Short-term treatment without metabolic activation

O=[N+]([O-])c1cccc2ccccc12 [1-Nitronaphthalene]
Carcinogenicity Studies (rodent [1]): Neg | in vivo genotoxicity tests (rodent [2]): negative | The Highest Specific Activity and the Strain ([3]; TA100 with S9, ref Table 2): 12,500 revertants/mg | The Highest Specific Activity and the Strain ([3]; TA100 without S9, ref Table 2): 14,700 revertants/mg | specific activity values obtained from Ames test ([3]; ref Table 2): exceeding 10,000 revertants per milligram | Bacterial reverse mutation assay, With S9 [3]: Pos | Bacterial reverse mutation assay, Without S9 [3]: Pos | TK6 assay result (mutant frequency increase, judgment) ([4]; 4h treatment (+S9)): significant increase in MF | TK6 assay result (mutant frequency increase, judgment) ([4]; 4h treatment (-S9)): significant increase in MF | TK6 assay overall judgment [4]: positive | TK mutation assay, With S9 [4]: Pos | TK mutation assay, Without S9 ([4]; without S9): Pos

Cc1cc(N)ccc1N [2,5-Diaminotoluene]
Carcinogenicity Studies (rodent [1]): Neg | TK6 assay overall judgment [5]: negative | TK mutation assay, Long term [5]: Neg | TK mutation assay, With S9 [5]: Neg | TK mutation assay, Without S9 [5]: Neg | CE3 (cell viability on Day 3) (TK6 cells [6]): 92.1% | cytotoxicity (TK6 cells [6]): About 80% | MLA result ([7]; NTP database, ref [54]): positive | MLA result ([7]; reported by SCCS, ref [46]): negative | MLA (TK gene locus), With S9 ([7]; ref [27]): Inconclusive^c | MLA (TK gene locus), Without S9 ([7]; ref [27]): Inconclusive^c

CC(=O)Nc1ccc(C(=O)CCl)cc1 [4-(Chloroacetyl)-acetanilide, 4-(Chloroacetyl)acetanilide]
Carcinogenicity Studies (rodent [1]): Neg | TK6 assay overall judgment [5]: positive | TK mutation assay, Long term [5]: Pos | TK mutation assay, With S9 [5]: Neg | TK mutation assay, Without S9 [5]: Pos | linear trend test of MF [5]: no statistically significant linear trends | in vivo genotoxicity tests (rodent [2]): negative | The Highest Specific Activity and the Strain ([3]; TA1538 with S9, ref [18], [19]): 600 revertants/mg in TA1538 with S9 | Bacterial reverse mutation assay, With S9 [3]: Pos | Bacterial reverse mutation assay, Without S9 [3]: Neg

Nc1ccc([N+](=O)[O-])cc1N [4-Nitro-o-phenylenediamine]
CE0 (TK6 cells [8]; [9]): 81.6% | RS0 (TK6 cells [8]; [9]): 97.0% | CE3 (TK6 cells [8]; Short treatment, +S9 mix, 24.1 μg/mL, Day 3): 92.1% | Daily cell growth Day 1×2×3 (TK6 cells [8]; [10]): 13.43 | RSG (TK6 cells [8]; [10]): 0.703 | Adjusted CE0 (TK6 cells [8]; [10]): 81.2% | CE0 (TK6 cells [8]; [10]): 84.1% | RS0 (TK6 cells [8]; [10]): 101.5% | CE3 (TK6 cells [8]; Short treatment, +S9 mix, 48.1 μg/mL, Day 3): 84.1% | Daily cell growth Day 1×2×3 (TK6 cells [8]; [11]): 13.64 | RSG (TK6 cells [8]; [11]): 0.714 | Adjusted CE0 (TK6 cells [8]; [11]): 62.7% | CE0 (TK6 cells [8]; [11]): 66.7% | RS0 (TK6 cells [8]; [11]): 78.3% | CE3 (TK6 cells [8]; Short treatment, +S9 mix, 96 μg/mL, Day 3): 72.7% | Daily cell growth Day 1×2×3 (TK6 cells [8]; [12]): 1.65 | RSG (TK6 cells [8]; [12]): 0.086 | Adjusted CE0 (TK6 cells [8]; [12]): 29.1% | CE0 (TK6 cells [8]; [12]): 42.0% | RS0 (TK6 cells [8]; [12]): 36.3% | CE3 (TK6 cells [8]; [13]): 1.160 | RS (TK6 cells [8]; [13]): 79.4 | CE0 (TK6 cells [8]; [13]): 74.8% | RS0 (TK6 cells [8]; [13]): 79.4% | CE3 (TK6 cells [8]; Short treatment, -S9 mix, 24.10 μg/mL, Day 3): 116.0% | CE3 (TK6 cells [8]; [14]): 0.866 | Daily cell growth Day 1×2×3 (TK6 cells [8]; [14]): 13.83 | RS (TK6 cells [8]; [14]): 65.5 | RSG (TK6 cells [8]; [14]): 0.667 | Adjusted CE0 (TK6 cells [8]; [14]): 56.8% | CE0 (TK6 cells [8]; [14]): 61.3% | RS0 (TK6 cells [8]; [14]): 65.5% | CE3 (TK6 cells [8]; Short treatment, -S9 mix, 48.10 μg/mL, Day 3): 86.6% | CE3 (TK6 cells [8]; [15]): 0.950 | Daily cell growth Day 1×2×3 (TK6 cells [8]; [15]): 13.07 | RS (TK6 cells [8]; [15]): 64.6 | RSG (TK6 cells [8]; [15]): 0.630 | Adjusted CE0 (TK6 cells [8]; [15]): 56.1% | CE0 (TK6 cells [8]; [15]): 63.1% | RS0 (TK6 cells [8]; [15]): 64.6% | CE3 (TK6 cells [8]; Short treatment, -S9 mix, 96.30 μg/mL, Day 3): 95.0% | CE3 (TK6 cells [8]; [16]): 0.866 | Daily cell growth Day 1×2×3 (TK6 cells [8]; [16]): 17.46 | RSG (TK6 cells [8]; [16]): 0.993 | Adjusted CE0(%) (TK6 cells [8]; [16]): 178.3% | CE0 (%) (TK6 cells [8]; [16]): 81.6% | RS0 (%) (TK6 cells [8]; [16]): 79.6% | CE3 (%) (TK6 cells [8]; dose 6.02 μg/mL, 24h treatment, -S9 mix, Day 3): 86.6% | CE3 (TK6 cells [8]; [17]): 1.012 | CE0 (%) (TK6 cells [8]; [17]): 95.0% | RS0 (%) (TK6 cells [8]; [17]): 73.2% | CE3 (%) (TK6 cells [8]; dose 24.10 μg/mL, 24h treatment, -S9 mix, Day 3): 101.2% | CE3 (TK6 cells [8]; [18]): 0.921 | RS (TK6 cells [8]; [18]): 97.0 | CE3 (TK6 cells [8]; [19]): 0.950 | Daily cell growth Day 1×2×3 (TK6 cells [8]; [19]): 11.59 | RSG (TK6 cells [8]; [19]): 0.659 | Adjusted CE0(%) (TK6 cells [8]; [19]): 99.3% | CE0 (%) (TK6 cells [8]; [19]): 74.8% | RS0 (%) (TK6 cells [8]; [19]): 44.3% | CE3 (%) (TK6 cells [8]; dose 48.1 μg/mL, 24h treatment, -S9 mix, Day 3): 95.0% | CE3 (TK6 cells [8]; [20]): 0.841 | RS (TK6 cells [8]; [20]): 101.5 | CE3 (TK6 cells [8]; [21]): 0.727 | RS (TK6 cells [8]; [21]): 78.3 | CE3 (TK6 cells [8]; [22]): 0.866 | Daily cell growth Day 1×2×3 (TK6 cells [8]; [22]): 9.04 | RSG (TK6 cells [8]; [22]): 0.514 | Adjusted CE0(%) (TK6 cells [8]; [22]): 55.5% | CE0 (%) (TK6 cells [8]; [22]): 59.6% | RS0 (%) (TK6 cells [8]; [22]): 24.8% | CE3 (%) (TK6 cells [8]; dose 96.3 μg/mL, 24h treatment, -S9 mix, Day 3): 86.6% | RS (TK6 cells [8]; dose 770 μg/mL, short treatment, +S9 mix): 36.3 | Carcinogenicity Studies (rodent [1]): Neg | The Highest Specific Activity and the Strain ([3]; TA100 without S9, ref Table 2): 41,400 revertants/mg in TA100 without S9 | specific activity values obtained from Ames test ([3]; ref Table 2): exceeding 10,000 revertants per milligram | Bacterial reverse mutation assay, With S9 [3]: Pos | Bacterial reverse mutation assay, Without S9 [3]: Pos | MLA (TK gene locus), With S9 ([7]; ref [27]): Pos | MLA (TK gene locus), Without S9 ([7]; ref [27]): Pos | TK6 assay result (mutant frequency increase, judgment) ([4]; 4h treatment (-S9)): increased significantly | TK mutation assay, Long term ([4]; 24 h, without S9): Pos | TK6 assay result (mutant frequency increase, judgment) ([4]; 24h treatment (-S9)): increased significantly | Dunnett type test, test statistic [4, 23]: 3.866 | Trend test, test statistic [4, 23]: 2.800 | %SG [4, 13]: 54.1% | MF [4, 13]: 14.5 | %SG [4, 14]: 55.8% | MF [4, 14]: 17.4 | Mut. freq. N-MF [4, 14]: 7.7 ×10-6 | Mut. freq. S-MF [4, 14]: 9.7 ×10-6 | Mut. freq. T-MF [4, 14]: 17.4 ×10-6 | %SG [4, 15]: 62.6% | MF [4, 15]: 16.9 | Mut. freq. N-MF [4, 15]: 6.3 ×10-6 | Mut. freq. S-MF [4, 15]: 10.6 ×10-6 | Mut. freq. T-MF [4, 15]: 16.9 ×10-6 | Dunnett type test, test statistic [4, 24]: 3.458 | Trend test, test statistic [4, 24]: 1.593 | Dunnett type test, test statistic [4, 25]: 2.435 | Trend test, test statistic [4, 25]: 2.615 | TK6 assay overall judgment [4]: positive | %SG [4, 16]: 39.7% | Mut. freq. (×10-6) N-MF [4, 16]: 11.7 ×10-6 | Mut. freq. (×10-6) S-MF [4, 16]: 7.7 ×10-6 | Mut. freq. (×10-6) T-MF [4, 16]: 19.4 ×10-6 | %SG [4, 17]: 59.9% | %SG [4, 18]: 62.7% | %SG [4, 19]: 78.5% | Mut. freq. (×10-6) N-MF [4, 19]: 3.0 ×10-6 | Mut. freq. (×10-6) S-MF [4, 19]: 11.1 ×10-6 | Mut. freq. (×10-6) T-MF [4, 19]: 14.2 ×10-6 | %SG [4, 20]: 65.0% | Mut. freq. (×10-6) N-MF [4, 20]: 7.5 ×10-6 | Mut. freq. (×10-6) S-MF [4, 20]: 14.0 ×10-6 | Mut. freq. (×10-6) T-MF [4, 20]: 21.6 ×10-6 | %SG [4, 21]: 70.4% | Mut. freq. (×10-6) N-MF [4, 21]: 5.2 ×10-6 | Mut. freq. (×10-6) S-MF [4, 21]: 12.4 ×10-6 | Mut. freq. (×10-6) T-MF [4, 21]: 17.6 ×10-6 | %SG [4, 22]: 76.1% | Mut. freq. (×10-6) N-MF [4, 22]: 5.6 ×10-6 | Mut. freq. (×10-6) S-MF [4, 22]: 17.9 ×10-6 | Mut. freq. (×10-6) T-MF [4, 22]: 23.5 ×10-6 | TK mutation assay, With S9 [4]: Neg | TK mutation assay, Without S9 ([4]; without S9): Pos

O=[N+]([O-])c1cc(N(CCO)CCO)ccc1NCCO [HC Blue No.2]
carcinogenicity classification (rodent [1]; ref [84]): non-carcinogenic | Carcinogenicity Studies (rodent [1]): Neg | TK mutation assay, Long term [5]: Pos | TK mutation assay, With S9 [5]: Neg | TK mutation assay, Without S9 [5]: Neg | Trend test, test statistic [5]: 2.719 | The Highest Specific Activity and the Strain ([3]; TA98 with S9, ref Table 2): 153.6 revertants/mg in TA98 with S9 | Bacterial reverse mutation assay, With S9 [3]: Pos | Bacterial reverse mutation assay, Without S9 [3]: Pos | MLA (4 h) ([7]; presence of S9, ref [27], [29], [68]): positive | MLA (−S9) ([7]; substance with high purity, −S9, ref [27]): positive | MLA (TK gene locus), With S9 ([7]; ref [27]): Pos | MLA (TK gene locus), Without S9 ([7]; ref [27]): Pos
